Columns and labels:
IKZF2 = IKZF2 (Homo sapiens (Human), UniProt Q96SW2+Q9UKS7); test: In vitro IKZF2 HiBit Assay (HEK293T Flp-in-HiBiT cells); assay type: cell-based; details: HEK293T Flp-in-HiBiT cells, 6 hrs incubation; for DC50: read-out: IKZF2 HiBit DC50; for Dmax: HEK-293T, read-out: IKZF2 HiBit Dmax (%)
Method: In Vitro IKZF2 HiBit Assay
The HiBiT protein tagging system was applied to modified HEK293T Flp-in-HiBiT cells (polyclone) via a CRISPR/Cas9-mediated insertion of the HiBiT peptide tag (Promega™) to the N-terminus of the IKZF2 gene locus (Neon™ transfection system). Test and reference compounds are diluted from 1 mM at 3 folds for 11 doses. 25 nL of diluted compound is transfered to assay plates (Corning3570) using ECHO550, the final DMSO concentration @ 0.1%. The cells are seeded in 3000/25 μL/well to compound plates. It is then incubated for 6 hrs in TC incubator. The amount of Nano-Glo® HiBiT lytic reagent needed to perform the desired experiments is calculated. The Nano-Glo® HiBiT lytic reagent is brought to room temperature. The LgBiT protein is diluted to 1:100 and the Nano-Glo® HiBiT lytic substrate is diluted to 1:50 into an appropriate volume of room temperature Nano-Glo® HiBiT lytic buffer. 15 μL of the detection reagent (or without LgBiT) is dispensed to corresponding well according to the layout. The plate is then shaked for 10 mins at room temperature. After briefly centrifuge, the plate is read on Envision. At the indicated timepoints, the Nano-Glo® HiBiT lytic detection system (Promega™) was utilized for detecting bioluminescence of the HiBiT tag in treated cells: abundance of the tag is proportionate to the level of luminescence. Following normalization to DMSO, dose-response curves were plotted (GraphPad Prism) to determine the concentration points at which 50% of HiBiT-Helios degradation was achieved by each compound. The extent of degradation (range of luminescence) from the highest to lowest concentration points was calculated to determine the Dmax.
(§1) DC50, A: <1 nM; B: 1-10 nM; C: 10-100 nM; D: 100-1000 nM; E: 1000-10000 nM; F: >10,000 nM. Dmax, A: >80%; B: 60-80%; C: 40-60%; D: 20-40%; E: <20%.

IKZF1 = IKZF1 (Homo sapiens (Human), UniProt Q13422+Q96SW2); test: In vitro IKZF1 HiBit Assay (HEK293T Flp-in-HiBiT-IKZF1 stable cell line); assay type: cell-based; details: HEK293T Flp-in-HiBiT-IKZF1 stable cell line, 6 hrs incubation; for DC50: read-out: IKZF1 HiBit DC50; for Dmax: HEK-293T, read-out: IKZF1 HiBit Dmax (%)
Sequence of IKZF1 (Q13422 whole entry): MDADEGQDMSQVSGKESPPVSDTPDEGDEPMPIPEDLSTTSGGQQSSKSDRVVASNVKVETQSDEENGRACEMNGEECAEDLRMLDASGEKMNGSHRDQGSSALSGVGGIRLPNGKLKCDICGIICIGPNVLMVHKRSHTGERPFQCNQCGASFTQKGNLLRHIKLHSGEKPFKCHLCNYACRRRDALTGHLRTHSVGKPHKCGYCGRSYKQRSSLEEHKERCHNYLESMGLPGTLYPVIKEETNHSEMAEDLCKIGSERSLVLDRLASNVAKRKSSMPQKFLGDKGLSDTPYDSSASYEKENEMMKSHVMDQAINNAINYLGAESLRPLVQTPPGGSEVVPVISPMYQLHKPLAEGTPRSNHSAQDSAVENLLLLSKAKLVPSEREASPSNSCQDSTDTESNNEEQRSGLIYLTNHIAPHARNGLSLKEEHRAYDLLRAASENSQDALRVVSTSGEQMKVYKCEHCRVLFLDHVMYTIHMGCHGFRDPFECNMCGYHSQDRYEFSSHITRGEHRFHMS
Sequence of IKZF1 (Q96SW2 whole entry): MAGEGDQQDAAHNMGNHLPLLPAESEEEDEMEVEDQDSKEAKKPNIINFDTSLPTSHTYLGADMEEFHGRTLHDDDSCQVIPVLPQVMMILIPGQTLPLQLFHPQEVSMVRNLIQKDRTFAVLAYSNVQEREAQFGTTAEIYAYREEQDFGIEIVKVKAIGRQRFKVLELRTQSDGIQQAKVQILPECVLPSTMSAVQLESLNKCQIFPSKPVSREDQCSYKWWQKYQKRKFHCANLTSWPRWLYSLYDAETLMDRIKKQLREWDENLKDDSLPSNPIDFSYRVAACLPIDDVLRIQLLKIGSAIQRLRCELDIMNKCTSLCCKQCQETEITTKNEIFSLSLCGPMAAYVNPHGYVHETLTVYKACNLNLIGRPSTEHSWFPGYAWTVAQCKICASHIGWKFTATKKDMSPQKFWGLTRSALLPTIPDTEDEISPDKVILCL
Sequence of IKZF1 (Q16531 2-1140 partner): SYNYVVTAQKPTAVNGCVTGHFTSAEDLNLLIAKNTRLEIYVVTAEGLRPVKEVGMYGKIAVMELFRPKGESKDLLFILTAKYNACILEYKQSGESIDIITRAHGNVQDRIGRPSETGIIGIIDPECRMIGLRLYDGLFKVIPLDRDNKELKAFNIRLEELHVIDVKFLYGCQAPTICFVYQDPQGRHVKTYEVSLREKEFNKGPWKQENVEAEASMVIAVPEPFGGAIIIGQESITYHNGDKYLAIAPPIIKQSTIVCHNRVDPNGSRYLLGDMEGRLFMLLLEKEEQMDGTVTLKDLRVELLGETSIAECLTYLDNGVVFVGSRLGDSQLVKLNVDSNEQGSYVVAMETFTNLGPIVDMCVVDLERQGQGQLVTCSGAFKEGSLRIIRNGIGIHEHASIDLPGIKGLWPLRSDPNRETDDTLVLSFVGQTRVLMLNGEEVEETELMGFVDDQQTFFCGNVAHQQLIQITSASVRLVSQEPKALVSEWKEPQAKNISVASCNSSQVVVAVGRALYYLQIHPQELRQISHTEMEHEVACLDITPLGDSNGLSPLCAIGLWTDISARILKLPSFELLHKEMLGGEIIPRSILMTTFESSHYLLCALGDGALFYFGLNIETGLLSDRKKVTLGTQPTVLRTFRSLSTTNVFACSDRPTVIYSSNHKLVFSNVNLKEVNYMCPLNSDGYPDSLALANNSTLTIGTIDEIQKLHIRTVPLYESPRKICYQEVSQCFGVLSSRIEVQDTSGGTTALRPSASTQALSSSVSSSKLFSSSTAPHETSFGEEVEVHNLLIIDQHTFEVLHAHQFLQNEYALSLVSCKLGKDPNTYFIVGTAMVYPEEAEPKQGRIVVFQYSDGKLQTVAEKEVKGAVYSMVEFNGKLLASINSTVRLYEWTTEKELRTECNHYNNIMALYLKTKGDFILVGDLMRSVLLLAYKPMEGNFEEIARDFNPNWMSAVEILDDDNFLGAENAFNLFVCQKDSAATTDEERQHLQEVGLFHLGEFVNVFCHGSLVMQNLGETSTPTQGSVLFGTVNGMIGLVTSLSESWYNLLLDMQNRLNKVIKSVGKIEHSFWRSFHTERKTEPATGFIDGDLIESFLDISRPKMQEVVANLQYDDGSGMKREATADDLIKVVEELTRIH
Method: In Vitro IKZF1 HiBit Assay
The HiBiT protein tagging system was applied to modified Cells: modified HEK293T Flp-in-HiBiT-IKZF1 stable cell line (polyclone) via a CRISPR/Cas9-mediated insertion of the HiBiT peptide tag (Promega™) to the N-terminus of the […] gene locus (Neon™ transfection system).
25 nL of diluted compound is transferred to assay plates (Corning3571) using ECHO550, the final DMSO concentration @ 0.1%. The cells are seeded in 3000/25 μL/well to compound plates. The plates are incubated for 6 hrs in TC incubator. The amount of Nano-Glo® HiBiT lytic reagent needed to perform the desired experiments is calculated. The Nano-Glo® HiBiT lytic reagent is brought to room temperature. The LgBiT protein is diluted to 1:100 and the Nano-Glo® HiBiT lytic substrate is brought to 1:50 into an appropriate volume of room temperature Nano-Glo® HiBiT lytic buffer. 15 μL of the detection reagent (or without LgBiT) is dispensed to corresponding well according to the layout. The plate is shaked for 10 mins at room temperature. After briefly centrifuge, the plateis read on Envision. At the indicated timepoints, the Nano-Glo® HiBiT lytic detection system (Promega™) was utilized for detecting bioluminescence of the HiBiT tag in treated cells: abundance of the tag is proportionate to the level of luminescence. Following normalization to DMSO, dose-response curves were plotted (GraphPad Prism) to determine the concentration points at which 50% of HiBiT-Ikaros degradation was achieved by each compound. The extent of degradation (range of luminescence) from the highest to lowest concentration points was calculated to determine the Dmax.
as §1

Sequence of IKZF2 (Q9UKS7 whole entry): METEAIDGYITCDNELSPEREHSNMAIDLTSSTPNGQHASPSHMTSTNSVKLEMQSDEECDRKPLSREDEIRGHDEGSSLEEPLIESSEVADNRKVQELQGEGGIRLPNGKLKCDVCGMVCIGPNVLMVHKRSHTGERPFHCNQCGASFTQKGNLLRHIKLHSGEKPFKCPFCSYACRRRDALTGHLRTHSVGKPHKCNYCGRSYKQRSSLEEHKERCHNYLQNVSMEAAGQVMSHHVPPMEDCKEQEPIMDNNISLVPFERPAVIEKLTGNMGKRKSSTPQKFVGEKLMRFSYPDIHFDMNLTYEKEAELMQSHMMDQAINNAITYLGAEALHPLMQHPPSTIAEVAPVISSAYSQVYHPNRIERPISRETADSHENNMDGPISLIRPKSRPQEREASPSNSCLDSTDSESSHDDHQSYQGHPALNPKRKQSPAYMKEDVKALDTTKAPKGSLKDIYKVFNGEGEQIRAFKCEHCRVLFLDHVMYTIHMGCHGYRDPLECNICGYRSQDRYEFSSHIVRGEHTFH
Sequence of IKZF2 (Q96SW2 whole entry): as the sequence (Q96SW2 whole entry) above
Sequence of IKZF2 (Q16531 2-1140 partner): as the sequence (Q16531 2-1140 partner) above

| DC50 (IKZF2) [nM] | Dmax (IKZF2) [%] | DC50 (IKZF1) [nM] | Dmax (IKZF1) [%] | Compound |
| --- | --- | --- | --- | --- |
| 1 to 10 | 40 to 60 | > 10000 | < 20 | Cn1cnc(-n2ccc3c(CN4CCCC4)cc(-c4ccc5c(c4)CN([C@H]4CCC(=O)NC4=O)C5=O)nc32)c1 [Example 263, (S)-3-(5-(1-(1-methyl-1H-imidazol-4-yl)-4-(pyrrolidin-1-ylmethyl)-1H-pyrrolo[2,3-b]pyridin-6-yl)-1-oxoisoindolin-2-yl) piperidine-2,6-dione] |
| 10 to 100 | 60 to 80 | > 10000 | < 20 | CNC(=O)Cn1ccc2c(CN3CCCC3)cc(-c3ccc4c(c3)CN(C3CCC(=O)NC3=O)C4=O)nc21 (centres unmarked) [Example 150, 2-(6-(2-(2,6-dioxopiperidin-3-yl)-1-oxoisoindolin-5-yl)-4-(pyrrolidin-1-ylmethyl)-1H-pyrrolo[2,3-b]pyridin-1-yl)-N-methylacetamide] |
| > 10000 | < 20 | > 10000 | < 20 | CS(=O)(=O)Nc1n[nH]c2c(CN3CCCC3)cc(-c3ccc4c(c3F)CN(C3CCC(=O)NC3=O)C4=O)nc12 (centres unmarked) [Example 297, N-(5-(2-(2,6-dioxopiperidin-3-yl)-4-fluoro-1-oxoisoindolin-5-yl)-7-(pyrrolidin-1-ylmethyl)-1H-pyrazolo[4,3-b]pyridin-3-yl) methanesulfonamide] |
| > 10000 | < 20 | > 10000 | < 20 | O=C1CCC(N2Cc3cc(-c4cc(CN5CCCC5)c5ccn(C6COC6)c5n4)c(Cl)cc3C2=O)C(=O)N1 (centres unmarked) [Example 273, 3-(6-chloro-5-(1-(oxetan-3-yl)-4-(pyrrolidin-1-ylmethyl)-1H-pyrrolo[2,3-b]pyridin-6-yl)-1-oxoisoindolin-2-yl) piperidine-2,6-dione] |
| 1 to 10 | > 80 | 100 to 1000 | 20 to 40 | O=C1CC[C@H](N2Cc3cc(-c4cc(CN5CCCC5)c5ccn(-c6cn[nH]c6)c5n4)ccc3C2=O)C(=O)N1 [Example 271, (S)-3-(5-(1-(1H-pyrazol-4-yl)-4-(pyrrolidin-1-ylmethyl)-1H-pyrrolo[2,3-b]pyridin-6-yl)-1-oxoisoindolin-2-yl) piperidine-2,6-dione] |
| 1 to 10 | 60 to 80 | > 10000 | < 20 | CCc1c(-c2ccc3c(c2)CN(C2CCC(=O)NC2=O)C3=O)nc2c(ccn2C2COC2)c1CN1CCCC1 (centres unmarked) [Example 262, 3-(5-(5-ethyl-1-(oxetan-3-yl)-4-(pyrrolidin-1-ylmethyl)-1H-pyrrolo[2,3-b]pyridin-6-yl)-1-oxoisoindolin-2-yl) piperidine-2,6-dione] |
| 1 to 10 | 60 to 80 | > 10000 | < 20 | CC(C)Nc1n[nH]c2c(CN3CCC(F)C3)cc(-c3ccc4c(c3F)CN(C3CCC(=O)NC3=O)C4=O)nc12 (centres unmarked) [Example 286] |
| < 1 | > 80 | 10 to 100 | 40 to 60 | CC(C)CC1CCN(Cc2cc(-c3ccc4c(c3)CN(C3CCC(=O)NC3=O)C4=O)nc3[nH]ccc23)C1 (centres unmarked) [Example 153, 3-(5-(4-((3-isobutylpyrrolidin-1-yl)methyl)-1H-pyrrolo[2,3-b]pyridin-6-yl)-1-oxoisoindolin-2-yl) piperidine-2,6-dione] |
| 10 to 100 | 40 to 60 | > 10000 | < 20 | O=C1CCC(N2Cc3cc(-c4cc(CN5CCCC5)c5cccc(C6CCC6)c5n4)ccc3C2=O)C(=O)N1 (centres unmarked) [Example 241, 3-(5-(8-cyclobutyl-4-(pyrrolidin-1-ylmethyl)quinolin-2-yl)-1-oxoisoindolin-2-yl) piperidine-2,6-dione] |
| < 1 | > 80 | 1 to 10 | 60 to 80 | CNc1[nH]nc2c(CN3CCCC3)cc(-c3ccc4c(c3F)CN(C3CCC(=O)NC3=O)C4=O)nc12 (centres unmarked) [Example 296, 3-(4-fluoro-5-(3-(methylamino)-7-(pyrrolidin-1-ylmethyl)-1H-pyrazolo[4,3-b]pyridin-5-yl)-1-oxoisoindolin-2-yl) piperidine-2,6-dione] |
| > 10000 | < 20 | > 10000 | < 20 | COCCOc1ccnc2c(CN3CCCC3)cc(-c3ccc4c(c3)CN(C3CCC(=O)NC3=O)C4=O)nc12 (centres unmarked) [Example 278, 3-(5-(8-(2-methoxyethoxy)-4-(pyrrolidin-1-ylmethyl)-1,5-naphthyridin-2-yl)-1-oxoisoindolin-2-yl) piperidine-2,6-dione] |
| 1 to 10 | > 80 | 10 to 100 | 20 to 40 | CC(C)C1CN(Cc2cc(-c3ccc4c(c3)CN(C3CCC(=O)NC3=O)C4=O)nc3[nH]ccc23)CC1O (centres unmarked) [Example 137, 3-(5-(4-((3-hydroxy-4-isopropylpyrrolidin-1-yl)methyl)-1H-pyrrolo[2,3-b]pyridin-6-yl)-1-oxoisoindolin-2-yl) piperidine-2,6-dione] |
| 10 to 100 | 40 to 60 | > 10000 | < 20 | O=C1CCC(N2Cc3cc(-c4cc(CN5CCCC5)c5nccc(NC6CC6)c5n4)ccc3C2=O)C(=O)N1 (centres unmarked) [Example 244, 3-(5-(8-(cyclopropylamino)-4-(pyrrolidin-1-ylmethyl)-1,5-naphthyridin-2-yl)-1-oxoisoindolin-2-yl) piperidine-2,6-dione] |
| < 1 | 20 to 40 | > 10000 | < 20 | CC(C)Nc1n[nH]c2c(CN3CCCC3)cc(-c3ccc4c(c3)CN(C35CC(C3)C(=O)NC5=O)C4=O)nc12 [Example 298, 1-(5-(3-(isopropylamino)-7-(pyrrolidin-1-ylmethyl)-1H-pyrazolo[4,3-b]pyridin-5-yl)-1-oxoisoindolin-2-yl)-3-azabicyclo[3.1.1]heptane-2,4-dione] |
| 10 to 100 | 60 to 80 | 100 to 1000 | 20 to 40 | O=C1CCC(N2Cc3cc(-c4cc(CN5CCCC5)c5nccc(N6CCC6)c5n4)ccc3C2=O)C(=O)N1 (centres unmarked) [Example 243, 3-(5-(8-(azetidin-1-yl)-4-(pyrrolidin-1-ylmethyl)-1,5-naphthyridin-2-yl)-1-oxoisoindolin-2-yl) piperidine-2,6-dione] |
| 10 to 100 | > 80 | > 10000 | < 20 | CC(=O)N1CC(n2ccc3c(CN4CCCC4)cc(-c4ccc5c(c4)CN(C4CCC(=O)NC4=O)C5=O)nc32)C1 (centres unmarked) [Example 256, 3-(5-(1-(1-acetylazetidin-3-yl)-4-(pyrrolidin-1-ylmethyl)-1H-pyrrolo[2,3-b]pyridin-6-yl)-1-oxoisoindolin-2-yl) piperidine-2,6-dione] |
| 10 to 100 | 20 to 40 | > 10000 | < 20 | CS(=O)(=O)CCn1ccc2c(CN3CCCC3)cc(-c3ccc4c(c3)CN(C3CCC(=O)NC3=O)C4=O)nc21 (centres unmarked) [Example 136, 3-(5-(1-(2-(methylsulfonyl)ethyl)-4-(pyrrolidin-1-ylmethyl)-1H-pyrrolo[2,3-b]pyridin-6-yl)-1-oxoisoindolin-2-yl) piperidine-2,6-dione] |

Source: patent US20250214991A1 (Oncopia Therapeutics, Inc. d/b/a/ SK Life Science Labs, priority 2022, published 2025)
